For this assay, the system named is L1210 leukemia ip in BDF1 mice, survival T/C. Put plainly: NCI In Vivo Anticancer Drug Screen. Data for tumor model L1210 Leukemia (intraperitoneal) in B6D2F1 (BDF1) mice. The note with it: higher = longer survival. The method in brief: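 Survival endpoint. Drug-treated group vs vehicle group, expressed as T divided by C. Tumor passaged by transplantation.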
[1] abbreviates: endpoint: mean survival time, dose: 75.0 mg/kg/injection, schedule: Q04DX003 (ip), vehicle: saline.
[2] abbreviates: endpoint: mean survival time, dose: 150.0 mg/kg/injection, schedule: Q04DX003 (ip), vehicle: saline.
[3] abbreviates: endpoint: mean survival time, dose: 300.0 mg/kg/injection, schedule: Q04DX003 (ip), vehicle: saline.
Where [4] appears, read: endpoint: mean survival time, dose: 100.0 mg/kg/injection, schedule: Q04DX003 (ip), vehicle: saline with Tween-80.
The mark [5] stands for this setting: endpoint: mean survival time, dose: 50.0 mg/kg/injection, schedule: Q01DX009 (ip), vehicle: Klucel (hydroxypropylcellulose) (HPC).
[6] abbreviates: endpoint: mean survival time, dose: 100.0 mg/kg/injection, schedule: Q01DX009 (ip), vehicle: Klucel (hydroxypropylcellulose) (HPC).
The mark [7] stands for this setting: endpoint: mean survival time, dose: 100.0 mg/kg/injection, schedule: Q04DX003 (ip), vehicle: Klucel (hydroxypropylcellulose) (HPC).
[8] abbreviates: endpoint: mean survival time, dose: 200.0 mg/kg/injection, schedule: Q04DX003 (ip), vehicle: Klucel (hydroxypropylcellulose) (HPC).
The mark [9] stands for this setting: endpoint: mean survival time, dose: 200.0 mg/kg/injection, schedule: Q01DX009 (ip), vehicle: Klucel (hydroxypropylcellulose) (HPC).
Where [10] appears, read: endpoint: mean survival time, dose: 100.0 mg/kg/injection, schedule: Q01DX001 (ip), vehicle: saline.
[11] abbreviates: endpoint: mean survival time, dose: 200.0 mg/kg/injection, schedule: Q01DX001 (ip), vehicle: saline.
Where [12] appears, read: endpoint: mean survival time, dose: 400.0 mg/kg/injection, schedule: Q01DX001 (ip), vehicle: saline.

Inconclusive results and toxic doses are left out.

Take `NC(=O)C(N)CCO` (stereo not given): the T/C under setting [1] is 104 % of control, the T/C under setting [2] was 104 % of control and the T/C under setting [3] is 100 % of control.

With `CC(C)CN(C)/N=N/c1nc[nH]c1C(N)=O`, the T/C is 114 % of control (endpoint: mean survival time, dose: 33.0 mg/kg/injection, schedule: Q01DX009 (ip), vehicle: carboxymethylcellulose (CMC)); 170 % of control (endpoint: mean survival time, dose: 37.0 mg/kg/injection, schedule: Q01DX Z (ip), vehicle: carboxymethylcellulose (CMC)); 156 % of control (endpoint: mean survival time, dose: 50.0 mg/kg/injection, schedule: Q01DX Z (ip), vehicle: carboxymethylcellulose (CMC)); 167 % of control (endpoint: mean survival time, dose: 75.0 mg/kg/injection, schedule: Q01DX Z (ip), vehicle: carboxymethylcellulose (CMC)); 109 % of control (endpoint: mean survival time, dose: 80.0 mg/kg/injection, schedule: Q01DX015 (ip), vehicle: carboxymethylcellulose (CMC)); 116 % of control (endpoint: mean survival time, dose: 100.0 mg/kg/injection, schedule: Q01DX001 (ip), vehicle: carboxymethylcellulose (CMC)). Further, the T/C was 86 % of control (endpoint: mean survival time, dose: 120.0 mg/kg/injection, schedule: Q01DX009 (ip), vehicle: carboxymethylcellulose (CMC)); 106 % of control (endpoint: mean survival time, dose: 134.0 mg/kg/injection, schedule: Q01DX001 (ip), vehicle: carboxymethylcellulose (CMC)); 109 % of control (endpoint: mean survival time, dose: 134.0 mg/kg/injection, schedule: Q01DX015 (ip), vehicle: carboxymethylcellulose (CMC)); 106 % of control (endpoint: mean survival time, dose: 178.0 mg/kg/injection, schedule: Q01DX001 (ip), vehicle: carboxymethylcellulose (CMC)); 122 % of control (endpoint: mean survival time, dose: 200.0 mg/kg/injection, schedule: Q01DX001 (ip), vehicle: carboxymethylcellulose (CMC)); 110 % of control (endpoint: mean survival time, dose: 267.0 mg/kg/injection, schedule: Q01DX001 (ip), vehicle: carboxymethylcellulose (CMC)). Further, the T/C runs as follows: (endpoint: mean survival time, dose: 400.0 mg/kg/injection, schedule: Q01DX001 (ip), vehicle: carboxymethylcellulose (CMC)) 151 % of control; (endpoint: median survival time, dose: 12.5 mg/kg/injection, schedule: Q01DX009 (ip), vehicle: steriod suspending solution) 122 % of control; (endpoint: median survival time, dose: 25.0 mg/kg/injection, schedule: Q01DX009 (ip), vehicle: steriod suspending solution) 111 % of control; (endpoint: median survival time, dose: 50.0 mg/kg/injection, schedule: Q01DX011 (ip), vehicle: steriod suspending solution) 175 % of control; (endpoint: median survival time, dose: 100.0 mg/kg/injection, schedule: Q01DX009 (ip), vehicle: steriod suspending solution) 155 % of control; (endpoint: median survival time, dose: 100.0 mg/kg/injection, schedule: Q01DX011 (ip), vehicle: steriod suspending solution) 168 % of control.

With `O=C(Cc1ccccn1)NCCc1ccccc1`, the T/C reads like this: (endpoint: mean survival time, dose: 75.0 mg/kg/injection, schedule: Q01DX009 (ip), vehicle: saline) 93 % of control; under setting [1], 108 % of control; (endpoint: mean survival time, dose: 150.0 mg/kg/injection, schedule: Q01DX009 (ip), vehicle: saline) 94 % of control; under setting [2], 108 % of control; under setting [3], 90 % of control.

As to `CC(Cc1ccccc1)NCCn1cnc2c1c(=O)n(C)c(=O)n2C` (stereo not given), the T/C was 94 % of control (endpoint: mean survival time, dose: 6.25 mg/kg/injection, schedule: Q01DX009 (ip), vehicle: saline); 98 % of control (endpoint: mean survival time, dose: 12.5 mg/kg/injection, schedule: Q01DX009 (ip), vehicle: saline); 94 % of control (endpoint: mean survival time, dose: 25.0 mg/kg/injection, schedule: Q01DX009 (ip), vehicle: saline); 102 % of control (endpoint: mean survival time, dose: 50.0 mg/kg/injection, schedule: Q01DX009 (ip), vehicle: saline).

Turning to `CC1CC(C)(C)N=C(C2(c3ccccc3)CC2)O1` (stereo not given), the T/C runs as follows: (endpoint: mean survival time, dose: 25.0 mg/kg/injection, schedule: Q01DX009 (ip), vehicle: saline with Tween-80) 102 % of control; (endpoint: mean survival time, dose: 50.0 mg/kg/injection, schedule: Q01DX009 (ip), vehicle: saline with Tween-80) 98 % of control; (endpoint: mean survival time, dose: 50.0 mg/kg/injection, schedule: Q04DX003 (ip), vehicle: saline with Tween-80) 88 % of control; (endpoint: mean survival time, dose: 100.0 mg/kg/injection, schedule: Q01DX009 (ip), vehicle: saline with Tween-80) 100 % of control; under setting [4], 95 % of control; (endpoint: mean survival time, dose: 200.0 mg/kg/injection, schedule: Q01DX009 (ip), vehicle: saline with Tween-80) 98 % of control.

For the molecule `c1ccc(-n2cc(-c3nc(N4CC4)nc(N4CC4)n3)c3ccccc32)cc1`, the T/C runs as follows: under setting [5], 121 % of control; under setting [6], 103 % of control; under setting [7], 112 % of control; under setting [8], 118 % of control.

On to `CC1(C(Cl)(Cl)Cl)C=CC(=O)C(Cl)=C1` (stereo not given), for which the T/C was 100 % of control under setting [6]; 103 % of control under setting [9]; 97 % of control (endpoint: mean survival time, dose: 400.0 mg/kg/injection, schedule: Q01DX009 (ip), vehicle: Klucel (hydroxypropylcellulose) (HPC)).

Consider `CCOC(=O)CC(C(=O)OCC)N1CCCCC1` (stereo not given), for which the T/C is 92 % of control under setting [10]; 95 % of control (endpoint: mean survival time, dose: 100.0 mg/kg/injection, schedule: Q01DX009 (ip), vehicle: alcohol); 100 % of control (endpoint: mean survival time, dose: 100.0 mg/kg/injection, schedule: Q04DX003 (ip), vehicle: alcohol); 91 % of control under setting [11]; 95 % of control (endpoint: mean survival time, dose: 200.0 mg/kg/injection, schedule: Q01DX009 (ip), vehicle: alcohol); 95 % of control (endpoint: mean survival time, dose: 200.0 mg/kg/injection, schedule: Q04DX003 (ip), vehicle: alcohol). For the same molecule, the T/C is 94 % of control under setting [12]; 105 % of control (endpoint: mean survival time, dose: 400.0 mg/kg/injection, schedule: Q01DX009 (ip), vehicle: alcohol); 97 % of control (endpoint: mean survival time, dose: 400.0 mg/kg/injection, schedule: Q04DX003 (ip), vehicle: alcohol).

As to `Cc1c(Cl)cccc1N=Cc1ccccc1O`, the T/C is 96 % of control under setting [5]; 108 % of control under setting [6]; 109 % of control under setting [7]; 110 % of control under setting [9]; 107 % of control under setting [8]; 98 % of control (endpoint: mean survival time, dose: 400.0 mg/kg/injection, schedule: Q04DX003 (ip), vehicle: Klucel (hydroxypropylcellulose) (HPC)).

In the case of `CCOC(=O)C(c1ccccc1)C(NC(C)=O)(C(=O)OCC)C(=O)OCC` (stereo not given), the T/C was 114 % of control (endpoint: mean survival time, dose: 100.0 mg/kg/injection, schedule: Q04DX002 (ip), vehicle: Klucel (hydroxypropylcellulose) (HPC)); 104 % of control (endpoint: mean survival time, dose: 200.0 mg/kg/injection, schedule: Q04DX002 (ip), vehicle: Klucel (hydroxypropylcellulose) (HPC)); 93 % of control (endpoint: mean survival time, dose: 400.0 mg/kg/injection, schedule: Q04DX002 (ip), vehicle: Klucel (hydroxypropylcellulose) (HPC)).

As for `Cc1ncc([N+](=O)[O-])n1CCN1CCOCC1`, the T/C is 102 % of control (endpoint: mean survival time, dose: 100.0 mg/kg/injection, schedule: Q04DX002 (ip), vehicle: saline); 96 % of control (endpoint: mean survival time, dose: 200.0 mg/kg/injection, schedule: Q04DX002 (ip), vehicle: saline); 98 % of control (endpoint: mean survival time, dose: 400.0 mg/kg/injection, schedule: Q04DX002 (ip), vehicle: saline).

As for `CC(=O)c1ccc(N=Nc2c(N)nc(N)nc2N)cc1`, the T/C was 94 % of control under setting [10], 94 % of control under setting [11] and 94 % of control under setting [12].

As to `CCC1=CC(=O)C(CC)=CC1=O`, the T/C runs as follows: under setting [4], 89 % of control; (endpoint: mean survival time, dose: 200.0 mg/kg/injection, schedule: Q04DX003 (ip), vehicle: saline with Tween-80) 94 % of control; (endpoint: mean survival time, dose: 700.0 mg/kg/injection, schedule: Q04DX003 (ip), vehicle: saline with Tween-80) 100 % of control.

(Values after PubChem BioAssay AID248 (DTP/NCI, 2004).)
